From US8691804B2 (Evotec AG, priority 2008, dated 2014)

Biological target: T1, human H3 receptors (Homo sapiens, UniProt Q9Y5N1)
T1 construct: host or cells: CHO-K1
Assay: cAMP quantification assay for human H3 receptor testing
Assay type: cell-based
Details: CHO-K1 cells expressing human H3 receptors; inhibition of agonist-induced decrease of cAMP; 100 nM histamine, 10 μM forskolin; read-out: Potency range (IC50 values)
Outline: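 CHO-K1 cells expressing human H3 (10,000/well) were preincubated 30 min at 37 °C with compound in PBS containing 1 mM IBMX and 0.03% BSA. They were then challenged 30 min with agonist solution (100 nM histamine plus 10 μM forskolin). cAMP was quantified by enzyme-complementation luminescence, with 8 concentrations in triplicate at 1% DMSO.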

T1 sequence (Q9Y5N1 whole entry): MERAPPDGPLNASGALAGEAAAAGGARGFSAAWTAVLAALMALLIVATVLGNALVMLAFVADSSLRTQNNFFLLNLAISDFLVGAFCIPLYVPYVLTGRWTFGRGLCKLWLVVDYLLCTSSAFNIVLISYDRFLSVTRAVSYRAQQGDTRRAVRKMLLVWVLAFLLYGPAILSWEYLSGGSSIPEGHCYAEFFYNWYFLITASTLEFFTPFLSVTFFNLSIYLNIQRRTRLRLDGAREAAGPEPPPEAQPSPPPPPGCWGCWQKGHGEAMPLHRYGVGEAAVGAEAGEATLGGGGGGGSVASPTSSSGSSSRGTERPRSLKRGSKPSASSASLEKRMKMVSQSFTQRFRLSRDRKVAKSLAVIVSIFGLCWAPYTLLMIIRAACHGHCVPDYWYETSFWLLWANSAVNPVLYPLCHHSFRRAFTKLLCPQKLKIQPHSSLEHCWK

Row | Compound | IC50
1 | COc1cnc(OC2CN(C(=O)N3CCCN(C4CCC4)CC3)C2)nc1 [Example 120, 1-cyclobutyl-4-({3-[(5-methoxypyrimidin-2-yl)oxy]azetidin-1-yl}carbonyl)-1,4-diazepane] | < 100 nM
2 | C#CCOC1CN(C(=O)N2CCCN(C3CCC3)CC2)C1 [Example 99, 1-cyclobutyl-4-{[3-(prop-2-yn-1-yloxy)azetidin-1-yl]carbonyl}-1,4-diazepane] | < 100 nM
3 | CCc1cnc(OC2CN(C(=O)N3CCCN(C4CCC4)CC3)C2)nc1 [Example 162, 1-cyclobutyl-4-({3-[(5-ethylpyrimidin-2-yl)oxy]azetidin-1-yl}carbonyl)-1,4-diazepane] | 500 to 5000 nM
4 | COc1ccc(OC2CN(C(=O)N3CCCN(C4CCC4)CC3)C2)cc1 [Example 86, 1-cyclobutyl-4-{[3-(4-methoxyphenoxy)azetidin-1-yl]carbonyl}-1,4-diazepane] | < 100 nM
5 | O=C(C1CN(C(=O)N2CCCN(C3CCC3)CC2)C1)N1CCC(F)CC1 [Example 129, 1-cyclobutyl-4-({3-[(4-fluoropiperidin-1-yl)carbonyl]azetidin-1-yl}carbonyl)-1,4-diazepane] | < 100 nM
6 | CC(C)c1cc(OC2CN(C(=O)N3CCCN(C4CCC4)CC3)C2)ccn1 [Example 55, 1-cyclobutyl-4-[(3-{[2-(1-methylethyl)pyridin-4-yl]oxy}azetidin-1-yl)carbonyl]-1,4-diazepane] | < 100 nM
7 | O=C1NCCc2cc(OC3CN(C(=O)N4CCCN(C5CCC5)CC4)C3)ccc21 [Example 116, 6-({1-[(4-cyclobutyl-1,4-diazepan-1-yl)carbonyl]azetidin-3-yl}oxy)-3,4-dihydroisoquinolin-1(2H)-one] | < 100 nM
8 | O=C(N1CCCN(C2CCC2)CC1)N1CC(Oc2ccncc2Cl)C1 [Example 67] | < 100 nM
9 | O=C(NCC1CC1)c1ccc(OC2CN(C(=O)N3CCCN(C4CCC4)CC3)C2)cn1 [Example 35, 5-({1-[(4-cyclobutyl-1,4-diazepan-1-yl)carbonyl]azetidin-3-yl}oxy)-N-(cyclopropylmethyl)pyridine-2-carboxamide] | < 100 nM
10 | COc1ccccc1OC1CN(C(=O)N2CCCN(C3CCC3)CC2)C1 [Example 92, 1-cyclobutyl-4-{[3-(2-methoxyphenoxy)azetidin-1-yl]carbonyl}-1,4-diazepane] | < 100 nM
11 | CCc1cc(OC2CN(C(=O)N3CCCN(C4CCC4)CC3)C2)ccn1 [Example 54, 1-cyclobutyl-4-({3-[(2-ethylpyridin-4-yl)oxy]azetidin-1-yl}carbonyl)-1,4-diazepane] | < 100 nM
12 | Cc1ccc2cc(OC3CN(C(=O)N4CCCN(C5CCC5)CC4)C3)ccc2n1 [Example 93, 6-({1-[(4-cyclobutyl-1,4-diazepan-1-yl)carbonyl]azetidin-3-yl}oxy)-2-methylquinoline] | < 100 nM
13 | COc1cccc(OC2CN(C(=O)N3CCCN(C4CCC4)CC3)C2)c1 [Example 91, 1-cyclobutyl-4-{[3-(3-methoxyphenoxy)azetidin-1-yl]carbonyl}-1,4-diazepane] | < 100 nM
14 | Cc1nccc(OC2CN(C(=O)N3CCCN(C4CCC4)CC3)C2)c1F [Example 151, 1-cyclobutyl-4-({3-[(3-fluoro-2-methylpyridin-4-yl)oxy]azetidin-1-yl}carbonyl)-1,4-diazepane] | < 100 nM
15 | O=C(N1CCCN(C2CCC2)CC1)N1CC(COc2ccc(C(F)(F)F)nc2)C1 [Example 153, 1-cyclobutyl-4-{[3-({[6-(trifluoromethyl)pyridin-3-yl]oxy}methyl)azetidin-1-yl]carbonyl}-1,4-diazepane] | < 100 nM
16 | O=C(C1CN(C(=O)N2CCCN(C3CCC3)CC2)C1)N1CCC(F)(F)CC1 [Example 130, 1-cyclobutyl-4-({3-[(4,4-difluoropiperidin-1-yl)carbonyl]azetidin-1-yl}carbonyl)-1,4-diazepane] | < 100 nM
17 | CC(C)N1CCCN(C(=O)N2CC(Oc3ccc(C(C)(C)O)nc3)C2)CC1 [Example 158, 2-{5-[(1-{[4-(1-methylethyl)-1,4-diazepan-1-yl]carbonyl}azetidin-3-yl)oxy]pyridin-2-yl}propan-2-ol] | < 100 nM
18 | N#Cc1ccc(OC2CN(C(=O)N3CCN(C4CCC4)CC3)C2)cc1 [Example 40, 4-({1-[(4-cyclobutylpiperazin-1-yl)carbonyl]azetidin-3-yl}oxy)benzonitrile] | < 100 nM
19 | CS(=O)(=O)c1ccc(OC2CN(C(=O)N3CCCN(C4CCC4)CC3)C2)cc1 [Example 163, 1-cyclobutyl-4-({3-[4-(methylsulfonyl)phenoxy]azetidin-1-yl}carbonyl)-1,4-diazepane] | < 100 nM
20 | O=C(N1CCCN(C2CCC2)CC1)N1CC(Oc2ccc3c(n2)CCN(C2CCC2)C3)C1 [Example 42, 6-cyclobutyl-2-({1-[(4-cyclobutyl-1,4-diazepan-1-yl)carbonyl]azetidin-3-yl}oxy)-5,6,7,8-tetrahydro-1,6-naphthyridine] | < 100 nM
21 | O=C(N1CCCN(C2CCC2)CC1)N1CC(Oc2ccc(Cl)c(Cl)c2)C1 [Example 23, 1-cyclobutyl-4-{[3-(3,4-dichlorophenoxy)azetidin-1-yl]carbonyl}-1,4-diazepane] | < 100 nM
22 | O=C1NCCc2cc(OCC3CN(C(=O)N4CCCN(C5CCC5)CC4)C3)ccc21 [Example 136, 6-({1-[(4-cyclobutyl-1,4-diazepan-1-yl)carbonyl]azetidin-3-yl}methoxy)-3,4-dihydroisoquinolin-1(2H)-one] | < 100 nM
23 | N#Cc1ccc(OC2CN(C(=O)N3CCCN(C4CCC4)CC3)C2)cc1 [Example 12, 4-({1-[(4-cyclobutyl-1,4-diazepan-1-yl)carbonyl]azetidin-3-yl}oxy)benzonitrile] | < 100 nM
24 | Cc1cnc(C)c(OC2CN(C(=O)N3CCCN(C4CCC4)CC3)C2)n1 [Example 64, 1-cyclobutyl-4-({3-[(3,6-dimethylpyrazin-2-yl)oxy]azetidin-1-yl}carbonyl)-1,4-diazepane] | < 100 nM
25 | CN(C(=O)C1CCCCC1)C1CN(C(=O)N2CCCN(C3CCC3)CC2)C1 [Example 144, N-{1-[(4-cyclobutyl-1,4-diazepan-1-yl)carbonyl]azetidin-3-yl}-N-methylcyclohexanecarboxamide] | < 100 nM
26 | O=C(N1CCCN(C2CCC2)CC1)N1CC(Oc2ncc(F)cn2)C1 [Example 160, 1-cyclobutyl-4-({3-[(5-fluoropyrimidin-2-yl)oxy]azetidin-1-yl}carbonyl)-1,4-diazepane] | < 100 nM
27 | Cc1cc(Cl)ccc1OC1CN(C(=O)N2CCCN(C3CCC3)CC2)C1 [Example 25, 1-{[3-(4-chloro-2-methylphenoxy)azetidin-1-yl]carbonyl}-4-cyclobutyl-1,4-diazepane] | < 100 nM

Next, values leading:

Row | IC50 | Compound
28 | < 100 nM | O=C(N1CCCN(C2CCC2)CC1)N1CC(Oc2ccc(Cl)cn2)C1 [Example 77, 1-({3-[(5-chloropyridin-2-yl)oxy]azetidin-1-yl}carbonyl)-4-cyclobutyl-1,4-diazepane]
29 | < 100 nM | Cc1nccc(OC2CN(C(=O)N3CCCN(C4CCC4)CC3)C2)n1 [Example 65, 1-cyclobutyl-4-({3-[(2-methylpyrimidin-4-yl)oxy]azetidin-1-yl}carbonyl)-1,4-diazepane]
30 | < 100 nM | O=C(N1CCCN(C2CCC2)CC1)N1CC(Oc2ccc(Cl)nc2)C1 [Example 46, 1-({3-[(6-chloropyridin-3-yl)oxy]azetidin-1-yl}carbonyl)-4-cyclobutyl-1,4-diazepane]
31 | < 100 nM | CNC(=O)c1ccc(OC2CN(C(=O)N3CCCN(C4CCC4)CC3)C2)cn1 [Example 5, 5-({1-[(4-cyclobutyl-1,4-diazepan-1-yl)carbonyl]azetidin-3-yl}oxy)-N-methylpyridine-2-carboxamide]
32 | < 100 nM | O=C(N1CCCN(C2CCC2)CC1)N1CC(Oc2ccc(Br)cn2)C1 [Example 22, 1-({3-[(5-bromopyridin-2-yl)oxy]azetidin-1-yl}carbonyl)-4-cyclobutyl-1,4-diazepane]
33 | < 100 nM | Cc1ccc(C(=O)NC2CN(C(=O)N3CCCN(C4CCC4)CC3)C2)cn1 [Example 139, N-{1-[(4-cyclobutyl-1,4-diazepan-1-yl)carbonyl]azetidin-3-yl}-6-methylpyridine-3-carboxamide]
34 | < 100 nM | CC(=O)c1ccc(OC2CN(C(=O)N3CCCN(C4CCC4)CC3)C2)cn1 [Example 119, 1-[5-({1-[(4-cyclobutyl-1,4-diazepan-1-yl)carbonyl]azetidin-3-yl}oxy)pyridin-2-yl]ethanone]
35 | < 100 nM | Cc1cncc(OC2CN(C(=O)N3CCCN(C4CCC4)CC3)C2)n1 [Example 63, 1-cyclobutyl-4-({3-[(6-methylpyrazin-2-yl)oxy]azetidin-1-yl}carbonyl)-1,4-diazepane]
36 | < 100 nM | NC(=O)c1ccc(OC2CN(C(=O)N3CCCN(C4CCC4)CC3)C2)cn1 [Example 4, 5-({1-[(4-cyclobutyl-1,4-diazepan-1-yl)carbonyl]azetidin-3-yl}oxy)pyridine-2-carboxamide]
37 | < 100 nM | COC(=O)C1CN(C(=O)N2CCCN(C3CCC3)CC2)C1 [Example 122, methyl 1-[(4-cyclobutyl-1,4-diazepan-1-yl)carbonyl]azetidine-3-carboxylate]
38 | < 100 nM | Cc1ccc(NC(=O)C2CN(C(=O)N3CCCN(C4CCC4)CC3)C2)cn1 [Example 132, 1-[(4-cyclobutyl-1,4-diazepan-1-yl)carbonyl]-N-(6-methylpyridin-3-yl)azetidine-3-carboxamide]
39 | < 100 nM | CNC(=O)c1ccc(N(C)C2CN(C(=O)N3CCCN(C4CCC4)CC3)C2)cn1 [Example 111, 5-[{1-[(4-cyclobutyl-1,4-diazepan-1-yl)carbonyl]azetidin-3-yl}(methyl)amino]-N-methylpyridine-2-carboxamide]
40 | < 100 nM | Cc1ccc(OC2CN(C(=O)N3CCCN(C4CCC4)CC3)C2)cn1 [Example 121, 1-cyclobutyl-4-({3-[(6-methylpyridin-3-yl)oxy]azetidin-1-yl}carbonyl)-1,4-diazepane]
